Reference: US4216206A (priority 1977, dated 1980)

Tested on: mouse
Assay: acute toxicity in the mouse over 7 days
Assay type: in vivo
Conditions: i.v.
Protocol: The acute toxicities of the antibiotics were determined in the mouse over 7 days.

## Thiostrepton
  LD50: < 100 mg/kg
